Assay results taken from US12613234B2, “Structural-profiling of analytes by nanopore trapping” (NANJING UNIVERSITY, priority 2021, dated 2026).
Where “and” joins values, the source holds several entries; their conditions need not be identical. Equal values may be shown once. Read-outs that look alike come from different tables or passages of the source.

Tests used:
wtCaM = wtCaM (Homo sapiens, UniProt P0DP23); assay: Binding capacity of metal ions to wtCaM monitored by MspA nanopore trapping
M2 MspA = system: M2 MspA; parameters: species or system Mycobacterium smegmatis; settings: for mean dwell time (τoff), mean ± std / mean interevent duration time (τon), mean ± std: N=3
[1] = […] KCl/1.0M CaCl2, +100 mV, listed as LYSOZYME
[2] = […] KCl/[…] KCl, +100 mV, listed as LYSOZYME
[3] = […] KCl/[…] KCl, +100 mV, listed as APO-MYOGLOBIN

Molecule: [Ba+2] [Ba^2+]
- Proportion of Apo-wtCaM events (wtCaM): 95.6 ± 2.9%
- Proportion of Holo-wtCaM events (binding capacity) (wtCaM): 4.4% and 4.4 ± 2.9%
- binding capacity to wtCaM, in words (wtCaM): poor binding capacity
- ΔI/I0 of Apo-wtCaM events (wtCaM): 51.6 ± 0.6%
- ΔI/I0 of Holo-wtCaM events (wtCaM): 86.9 ± 1.0%

Molecule: [Ca+2] [Ca^2+]
- ion concentration that fully activates wtCaM (wtCaM; 0.3 μM wtCaM): 0.6 mM
- Proportion of Apo-wtCaM events (wtCaM; 2 mM ion, 0.6 μM wtCaM): 21.2 ± 3.1%
- Proportion of Holo-wtCaM events (binding capacity) (wtCaM; 2 mM ion, 0.6 μM wtCaM): 54% and 54.1 ± 4.8%
- Proportion of Transient States events (wtCaM; 2 mM ion, 0.6 μM wtCaM): 24.8 ± 2.7%
- ΔI/I0 of Apo-wtCaM events (wtCaM; 2 mM ion, 0.6 μM wtCaM): 56.8±1.1%
- ΔI/I0 of Holo-wtCaM events (wtCaM; 2 mM ion, 0.6 μM wtCaM): 90.4±0.2%
- ΔI/I0 of Transient States events (wtCaM; 2 mM ion, 0.6 μM wtCaM): 75.0±2.1%
- binding capacity to wtCaM, in words (wtCaM; nanopore trapping): strong binding affinity

Molecule: [Mg+2] [Mg^2+]
- Proportion of Apo-wtCaM events (wtCaM; 2 mM ion, 0.6 μM wtCaM): 96.0 ± 1.7%
- Proportion of Holo-wtCaM events (binding capacity) (wtCaM; 2 mM ion, 0.6 μM wtCaM): 4.0% and 4.0 ± 1.7%
- ΔI/I0 of Apo-wtCaM events (wtCaM; 2 mM ion, 0.6 μM wtCaM): 52.6 ± 0.4%
- ΔI/I0 of Holo-wtCaM events (wtCaM; 2 mM ion, 0.6 μM wtCaM): 88.8 ± 1.1%
- binding capacity to wtCaM, in words (wtCaM; nanopore trapping): poor binding capacity

Molecule: [Pb+2] [Pb^2+]
- Proportion of Holo-wtCaM events (binding capacity) (wtCaM): 62.0±3.1%
- Proportion of Transient States events (wtCaM): 38.0 ± 3.1%
- binding capacity to wtCaM, in words (wtCaM): even stronger than that of Ca^2+
- ΔI/I0 of Holo-wtCaM events (wtCaM): 90.6 ± 0.7%
- ΔI/I0 of Transient States events (wtCaM): 77.91 ± 0.13%

Molecule: [Sr+2] [Sr^2+]
- Proportion of Apo-wtCaM events (wtCaM; 2 mM ion, 0.6 μM wtCaM): 73.1 ± 1.4%
- Proportion of Holo-wtCaM events (binding capacity) (wtCaM; 2 mM ion, 0.6 μM wtCaM): 14.0±2.4%
- Proportion of Transient States events (wtCaM; 2 mM ion, 0.6 μM wtCaM): 12.6 ± 0.4%
- ΔI/I0 of Apo-wtCaM events (wtCaM; 2 mM ion, 0.6 μM wtCaM): 54.0 ± 0.5%
- ΔI/I0 of Holo-wtCaM events (wtCaM; 2 mM ion, 0.6 μM wtCaM): 90.22 ± 0.16%
- ΔI/I0 of Transient States events (wtCaM; 2 mM ion, 0.6 μM wtCaM): 75.7 ± 1.5%
- binding capacity to wtCaM, in words (wtCaM; nanopore trapping): slightly better binding capacity to wtCaM than that of Mg^2+ or Ba^2+

Molecule: [Tb+3] [Tb^3+]
- ion concentration that fully activates apo-wtCaM (wtCaM; 0.3 μM apo-wtCaM): 5 µM
- concentration regime in which Tb-wtCaM events were observed (wtCaM; 0.3 μM wtCaM): 0.05 to 120 µM
- concentration regime in which the pre-aggregated state was observed (wtCaM; 0.3 μM wtCaM): 15 to 200 µM
- ion concentration with complete disappearance of events (aggregation of wtCaM) (wtCaM; 0.3 μM wtCaM): 500 µM
- binding capacity to wtCaM, in words (wtCaM; nanopore trapping): stronger than that of Ca^2+

Molecule: lysozyme: lysozyme from chicken egg white, representative basic protein
- 1/τon (M2 MspA; +60 mV, […] KCl/1.0M CaCl2): (1.0 ± 0.2) × 10^−2 MS^−1
- τoff (M2 MspA; +60 mV, […] KCl/1.0M CaCl2): 35.5 ± 0.9 MS
- 1/τon (M2 MspA; +80 mV, […] KCl/1.0M CaCl2): (1.4 ± 0.4) × 10^−2 MS^−1
- τoff (M2 MspA; +80 mV, […] KCl/1.0M CaCl2): 47.8 ± 6.7 MS
- 1/τon (M2 MspA; +100 mV, […] KCl/1.0M CaCl2): (1.8 ± 0.2) × 10^−2 MS^−1
- τoff (M2 MspA; +100 mV, […] KCl/1.0M CaCl2): 47.3 ± 3.5 MS
- 1/τon (M2 MspA; +120 mV, […] KCl/1.0M CaCl2): (1.8 ± 0.3) × 10^−2 MS^−1
- τoff (M2 MspA; +120 mV, […] KCl/1.0M CaCl2): 38.8 ± 8.9 MS
- mean dwell time (τoff), mean ± std (M2 MspA; […] KCl/1.0M CaCl2, +100 mV): 47.3±3.5 MS
- mean interevent duration time (τon), mean ± std (M2 MspA; […] KCl/1.0M CaCl2, +100 mV): 38.0±11.0 MS
- mean dwell time (τoff), mean ± std (M2 MspA; [1]): 47.3 ± 3.5 MS
- mean interevent duration time (τon), mean ± std (M2 MspA; [1]): 38.0 ± 11.0 MS
- mean dwell time (τoff), mean ± std (M2 MspA; […] KCl/[…] KCl, +100 mV): 5.4±0.2 MS
- mean interevent duration time (τon), mean ± std (M2 MspA; […] KCl/[…] KCl, +100 mV): 460.7±51.2 MS
- mean dwell time (τoff), mean ± std (M2 MspA; [2]): 5.4 ± 0.2 MS
- mean interevent duration time (τon), mean ± std (M2 MspA; [2]): 460.7 ± 51.2 MS
- 1/τon (M2 MspA; concentration 0.21 (MM), +100 mV): (6.4 ± 2.6) × 10^−3 MS^−1
- 1/τon (M2 MspA; concentration 0.42 (MM), +100 mV): (2.8 ± 0.8) × 10^−2 MS^−1
- 1/τon (M2 MspA; concentration 0.63 (MM), +100 mV): (4.2 ± 1.2) × 10^−2 MS^−1
- 1/τon (M2 MspA; concentration 0.83 (MM), +100 mV): (5.5 ± 0.7) × 10^−2 MS^−1

B1: apo-myoglobin: heme-free myoglobin from equine skeletal muscle (protein, UniProt P68082 2-154, looked up)
Myoglobin: GLSDGEWQQVLNVWGKVEADIAGHGQEVLIRLFTGHPETLEKFDKFKHLKTEAEMKASEDLKKHGTVVLTALGGILKKKGHHEAELKPLAQSHATKHKIPIKYLEFISDAIIHVLHSKHPGDFGADAQGAMTKALELFRNDIAAKYKELGFQG
modifications: heme-free apo form
notes: heme-free myoglobin from equine skeletal muscle
- 1/τon (M2 MspA; +60 mV, […] KCl/1.0M CaCl2): (1.0 ± 0.3) × 10^−3 MS^−1
- τoff (M2 MspA; +60 mV, […] KCl/1.0M CaCl2): 99.3 ± 20.2 MS
- 1/τon (M2 MspA; +80 mV, […] KCl/1.0M CaCl2): (2.0 ± 0.5) × 10^−3 MS^−1
- τoff (M2 MspA; +80 mV, […] KCl/1.0M CaCl2): 317.5 ± 18.3 MS
- 1/τon (M2 MspA; +100 mV, […] KCl/1.0M CaCl2): (2.8 ± 0.3) × 10^−3 MS^−1
- τoff (M2 MspA; +100 mV, […] KCl/1.0M CaCl2): 531.0 ± 27.5 MS
- 1/τon (M2 MspA; +120 mV, […] KCl/1.0M CaCl2): (4.5 ± 0.6) × 10^−3 MS^−1
- τoff (M2 MspA; +120 mV, […] KCl/1.0M CaCl2): 522.0 ± 15.0 MS
- mean dwell time (τoff), mean ± std (M2 MspA; […] KCl/1.0M CaCl2, +100 mV): 531.0±27.5 MS
- mean interevent duration time (τon), mean ± std (M2 MspA; […] KCl/1.0M CaCl2, +100 mV): 365.1 ± 27.9 MS
- mean dwell time (τoff), mean ± std (M2 MspA; […] KCl/1.0M CaCl2, +100 mV, listed as APO-MYOGLOBIN): 531.0 ± 27.5 MS
- mean dwell time (τoff), mean ± std (M2 MspA; […] KCl/[…] KCl, +100 mV): 7.3±1.3 MS
- mean dwell time (τoff), mean ± std (M2 MspA; [3]): 7.3 ± 1.3 MS
- mean interevent duration time (τon), mean ± std (M2 MspA; [3]): 3640.4 ± 633.6 MS
- 1/τon (M2 MspA; concentration 0.04 (MM), +100 mV): (4.4 ± 0.5) × 10^−4 MS^−1
- 1/τon (M2 MspA; concentration 0.07 (MM), +100 mV): (9.9 ± 0.9) × 10^−3 MS^−1
- 1/τon (M2 MspA; concentration 0.11 (MM), +100 mV): (2.1 ± 0.2) × 10^−3 MS^−1
- 1/τon (M2 MspA; concentration 0.14 (MM), +100 mV): (2.8 ± 0.2) × 10^−3 MS^−1
